Reference: paper PMC9490176 (Frontiers in Pharmacology, 2022)
Read-outs that look alike come from different tables or passages of the source.

What was measured:
[1] = parameters: method as in Shi et al., 2011; settings: with ketoconazole compared with ruxolitinib alone; ref Shi et al., 2011; cited from earlier work
[2] = parameters: method as in Ma et al., 2017; settings: following the initial dose of 80–400 mg pyrotinib; ref Ma et al., 2017; cited from earlier work
[3] = system: rat liver microsomes (RLMs); experiment: Michaelis-Menten kinetics of pyrotinib metabolism in RLMs; type: in vitro ADME, Sprague-Dawley (SD) rat; settings: pyrotinib 0.5–25 μM in RLMs
Method: The rats were anesthetized with 10% chloral hydrate after 12 h of starvation. […] The rat liver tissue was then accurately removed and transferred to Petri dishes at 0–4°C. The tissues were homogenized in 0.15 mol/L KCl-PBS buffer and stored at 4°C. The homogenate (CR30NX, Eppendorf, Germany) was centrifuged at 9000 rpm at 4°C for 30 min. The supernatant was transferred to another tube and was centrifuged at 105000 rpm at 4°C for 60 min. The precipitate containing liver microsomes was removed and suspended in 0.15 mol/L KCl-PBS buffer (containing 0.25 mol/L sucrose) and stored at −80°C for later use. The liver microsomal concentration was 8.838 mg/ml after the determination with the BCA protein quantification kit (Thermo Scientific, Waltham, MA, United States). […]
GraphPad Prism 7.0 software (GraphPad Software Inc.) was used to calculate the enzyme kinetic parameters of substrates which include Vmax, Km, IC50, Ki, and αKi values. […] The PK characteristics, maximal plasma concentration (Cmax), time to peak plasma concentration (Tmax), apparent volume of distribution (Vz/F), area under the plasma concentration-time curve (AUC), elimination half-life (t1/2), plasma clearance (Cl/F), and mean residence time (MRT), were calculated using DAS (Drug and Statistics) software (Version 3.2.8, The People’s Hospital of Lishui, China). […]

[4] = Stability evaluation in rat plasma (UPLC-MS/MS method validation); type: in vitro ADME; settings: n = 6
Text: The test method was extensively verified regarding precision, accuracy, and stability, according to the EMA (European Medicines Agency) 2011 and FDA (Food and Drug Administration) 2018 criteria. In six replicates, quality control (QC) samples were generated at low, medium, and high concentrations and were utilized to validate the procedure. This method was designed to conform to EMA and FDA regulatory requirements for bioanalytical methods.

[5] = In vivo pharmacokinetics of pyrotinib in rats with or without azole pretreatment; parameters: species or system Sprague-Dawley rats; settings: rat; for AUC(0-inf) / AUC(0-t) / CL/F / Cmax / Vd/F: male, Sprague-Dawley, plasma, po, 8 mg/kg; for AUC(0-inf) / AUC(0-t) / CL/F / Cmax / Vd/F / MRT(0-t) / MRT(0-∞) / Tmax / t1/2: 8 mg/kg pyrotinib oral; for AUC(0-inf) / AUC(0-t) / CL/F / Cmax / MRT(0-t) / MRT(0-∞) / Tmax / t1/2: n = 6; for Vd/F: n = 6, read-out: Vz/F
Method: Male Sprague-Dawley rats (180–220 g) were supplied by the Experimental Animal Center of Wenzhou Medical University. The animals were placed in a controlled environment of 20–26°C and 55 ± 15% relative humidity under a 12 h light-dark cycle. Except for the 12-h fasting period before the PK study, all rats were fed a standard rodent diet and freely consumed tap water. All experimental procedures and protocols were reviewed and approved by the Animal Care and Use Committee of the Wenzhou Medical University (No. wydw 2019-650), following the Guidelines for The Care and Use of Laboratory Animals. […] After the last administration of the three azoles or 0.5% CMC-Na (control group), a single dose of 8 mg/kg pyrotinib was administered orally to all rats in each group. Each group consisted of 6 rats. The azole antifungal medication was dissolved in 0.5% carboxymethylcellulose sodium solution (CMC-Na). […] The plasma was obtained by centrifuging the blood samples at 4000 rpm for 10 min at 4°C and stored at −80°C until analysis. The frozen plasma samples were thawed at room temperature and uniformly mixed; 50 μL of plasma sample was removed and mixed with 150 μL acetonitrile-midazolam solution (containing midazolam 200 ng/ml) to precipitate the proteins, followed by vortexing for 30 s and centrifuging at 13,000 rpm for 5 min. Then 150 μL of the supernatant was collected and placed into UPLC vials with 2 μL of sample was subjected to UPLC-MS/MS analysis. GraphPad Prism 7.0 software (GraphPad Software Inc.) was used to calculate the enzyme kinetic parameters of substrates which include Vmax, Km, IC50, Ki, and αKi values. The enzyme inhibition mode was obtained using the Linear Lineweaver-Burk plots. The PK characteristics, maximal plasma concentration (Cmax), time to peak plasma concentration (Tmax), apparent volume of distribution (Vz/F), area under the plasma concentration-time curve (AUC), elimination half-life (t1/2), plasma clearance (Cl/F), and mean residence time (MRT), were calculated using DAS (Drug and Statistics) software (Version 3.2.8, The People’s Hospital of Lishui, China). The one-way ANOVA and a Dunnet’s multiple range test were used for the statistical comparisons within groups with SPSS software (Version 25.0; SPSS Inc.). Statistical significance was set at p < 0.05.

[6] = system: pyrotinib metabolism in rat liver microsomes (RLMs); experiment: In vitro drug-drug interaction study: azole inhibition of pyrotinib metabolism (M1 formation) in RLMs; type: in vitro ADME, Sprague-Dawley (SD) rat
Method: The rats were anesthetized with 10% chloral hydrate after 12 h of starvation. […] The rat liver tissue was then accurately removed and transferred to Petri dishes at 0–4°C. The tissues were homogenized in 0.15 mol/L KCl-PBS buffer and stored at 4°C. The homogenate (CR30NX, Eppendorf, Germany) was centrifuged at 9000 rpm at 4°C for 30 min. The supernatant was transferred to another tube and was centrifuged at 105000 rpm at 4°C for 60 min. The precipitate containing liver microsomes was removed and suspended in 0.15 mol/L KCl-PBS buffer (containing 0.25 mol/L sucrose) and stored at −80°C for later use. The liver microsomal concentration was 8.838 mg/ml after the determination with the BCA protein quantification kit (Thermo Scientific, Waltham, MA, United States).
Waters Acquity UPLC I-Class (Waters, USA) was used to separate pyrotinib and midazolam. A binary solvent manager (BSM) and sample manager with a flow-through needle (SM-FTN) were used in the UPLC system. The metabolites’ effective separation was achieved using Acquity UPLC HSS T3 (100 × 2.1 mm, 1.8 μm particle size) (Waters Corporation, Milford, MA, USA) with a mobile phase of acetonitrile (solvent A) and 0.1% formic acid water containing 20 mmol ammonium acetate (solvent B). The gradient program was set as following: 0–0.3 min 10–30% A; 0.3–1 min 30–95% A; 1–2 min 95% A; 2–2.3 min 95–10% A. The mobile phase’s flow rate was 0.4 mL/min, the column temperature was set as 40 °C, and the injection volume was 2 μL. The XEVO TQD triple quadrupole mass spectrometer was equipped with an electrospray ionization (ESI) source, and the multiple reaction monitoring (MRM) mode was selected for quantification. The data were collected using the Mass lynx 4.1 software (Waters Corp.). Mass spectral data were obtained in positive electrospray mode (ESI+) in MRM mode. Nitrogen was used as desolvation (1000 L/h) and cone gases (50 L/h). The ion monitoring voltage conditions were as follows: capillary voltage, 2.5 kV; source temperature, 150°C; desolvation temperature, 500°C. Various reaction monitoring methods were used for quantitative analysis.
200 µl of the incubation mixture was set up as following: 0.3 mg/ml RLMs, 100 mM potassium phosphate buffer (pH 7.4), 1 mM NADPH, and three azole antifungal drugs. […] For fluconazole and itraconazole, the concentrations of them were all adjusted to 0.01, 0.1, 1, 5, 10, 50, and 100 µM. […] The ingredients were combined and pre-warmed for 5 min at 37°C. The reaction was initiated with NADPH and incubated at 37°C for 30 min. Then, 200 µl of acetonitrile-midazolam solution (containing midazolam 200 ng/ml) was added and the mixture was vortexed for 2 min to stop the reaction. After been centrifuged at 13000 rpm for 5 min, 2 µl aliquot of the supernatant was then used for the UPLC-MS/MS analysis.
GraphPad Prism 7.0 software (GraphPad Software Inc.) was used to calculate the enzyme kinetic parameters of substrates which include Vmax, Km, IC50, Ki, and αKi values. The enzyme inhibition mode was obtained using the Linear Lineweaver-Burk plots. The PK characteristics, maximal plasma concentration (Cmax), time to peak plasma concentration (Tmax), apparent volume of distribution (Vz/F), area under the plasma concentration-time curve (AUC), elimination half-life (t1/2), plasma clearance (Cl/F), and mean residence time (MRT), were calculated using DAS (Drug and Statistics) software (Version 3.2.8, The People’s Hospital of Lishui, China). The one-way ANOVA and a Dunnet’s multiple range test were used for the statistical comparisons within groups with SPSS software (Version 25.0; SPSS Inc.). Statistical significance was set at p < 0.05.

[7] = after 40 mg/kg fluconazole for 7 days
[8] = after 40 mg/kg itraconazole for 7 days
[9] = after 40 mg/kg ketoconazole for 7 days
[10] = RLMs, pyrotinib 1, 2, 4, 8 µM, Lineweaver-Burk analysis

N#CC[C@H](C1CCCC1)n1cc(-c2ncnc3[nH]ccc23)cn1 [ruxolitinib]
increase of plasma exposure [1]: 91%

CCOc1cc2ncc(C#N)c(Nc3ccc(OCc4ccccn4)c(Cl)c3)c2cc1NC(=O)/C=C/[C@H]1CCCN1C [pyrotinib, Pyrotinib]
mean terminal half-life (t1/2) [2]: 11.4 to 15.9 h | time required to attain maximum plasma concentration (Tmax) [2]: 3 to 5 h | Km [3]: 4.09 µM | Vmax [3]: 58.33 pmol/min/mg protein | Stability in rat plasma, RE ([4]; 4°C, 24 h, high concentration (pyrotinib 4500, pyrotinib M1 0.75 μM)): 101.04% | Stability in rat plasma, RE ([4]; 4°C, 24 h, low concentration (pyrotinib 15, pyrotinib M1 0.015 μM)): 102.40% | Stability in rat plasma, RE ([4]; 4°C, 24 h, medium concentration (pyrotinib 150, pyrotinib M1 0.15 μM)): 107.05% | Stability in rat plasma, RE ([4]; Room temperature, 6 h, high concentration (pyrotinib 4500, pyrotinib M1 0.75 μM)): 103.56% | Stability in rat plasma, RE ([4]; Room temperature, 6 h, low concentration (pyrotinib 15, pyrotinib M1 0.015 μM)): 105.41% | Stability in rat plasma, RE ([4]; Room temperature, 6 h, medium concentration (pyrotinib 150, pyrotinib M1 0.15 μM)): 106.18% | Stability in rat plasma, RE ([4]; −80°C, 7 days, high concentration (pyrotinib 4500, pyrotinib M1 0.75 μM)): 100.79% | Stability in rat plasma, RE ([4]; −80°C, 7 days, low concentration (pyrotinib 15, pyrotinib M1 0.015 μM)): 98.95% | Stability in rat plasma, RE ([4]; −80°C, 7 days, medium concentration (pyrotinib 150, pyrotinib M1 0.15 μM)): 108.01% | AUC(0-inf) [5, 7]: 29200 ng·h/mL | AUC(0-t) [5, 7]: 29100 ng·h/mL | CL/F [5, 7]: 4.83 mL/min/kg | Cmax [5, 7]: 4290 ng/mL | Vd/F [5, 7]: 1.09 ± 0.21 L/kg | AUC(0-inf) [5, 8]: 18000 ng·h/mL | AUC(0-t) [5, 8]: 18000 ng·h/mL | CL/F [5, 8]: 7.5 mL/min/kg | Cmax [5, 8]: 3000 ng/mL | Vd/F [5, 8]: 1 ± 0.58 L/kg | AUC(0-inf) [5, 9]: 36500 ng·h/mL | AUC(0-t) [5, 9]: 36300 ng·h/mL | CL/F [5, 9]: 3.83 mL/min/kg | Cmax [5, 9]: 4680 ng/mL | Vd/F [5, 9]: 0.89 ± 0.24 L/kg | AUC(0-inf) ([5]; control group (0.5% CMC-Na)): 17800 ng·h/mL | AUC(0-t) ([5]; control group (0.5% CMC-Na)): 17800 ng·h/mL | CL/F ([5]; control group (0.5% CMC-Na)): 7.67 mL/min/kg | Cmax ([5]; control group (0.5% CMC-Na)): 3060 ng/mL | Vd/F ([5]; control group (0.5% CMC-Na)): 0.81 ± 0.25 L/kg | MRT(0-t) [5, 7]: 5.28 ± 0.24 H | MRT(0-∞) [5, 7]: 5.37 ± 0.27 H | Tmax [5, 7]: 3.83 ± 0.41 H | t1/2 [5, 7]: 2.66 ± 0.15 H | MRT(0-t) [5, 8]: 4.55 ± 0.36 H | MRT(0-∞) [5, 8]: 4.56 ± 0.37 H | Tmax [5, 8]: 4.00 ± 1.10 H | t1/2 [5, 8]: 1.47 ± 0.63 H | MRT(0-t) [5, 9]: 5.38 ± 0.38 H | MRT(0-∞) [5, 9]: 5.47 ± 0.38 H | Tmax [5, 9]: 4.00 ± 1.10 H | t1/2 [5, 9]: 2.66 ± 0.20 H | MRT(0-t) ([5]; control group (0.5% CMC-Na)): 4.32 ± 0.40 H | MRT(0-∞) ([5]; control group (0.5% CMC-Na)): 4.32 ± 0.42 H | Tmax ([5]; control group (0.5% CMC-Na)): 3.50 ± 1.23 H | t1/2 ([5]; control group (0.5% CMC-Na)): 1.26 ± 0.54 H | decrease of Cl/F compared to the control group ([5]; coadministrated with ketoconazole): approximately 50% | decrease of Cl/F compared with control group ([5]; fluconazole group): 0.37 fold | increase of AUC(0-t) compared with control group ([5]; fluconazole group): 0.63 fold | increase of Cmax compared with control group ([5]; fluconazole group): 0.40 fold | decrease of Cl/F compared with control group ([5]; ketoconazole group): 0.50 fold | increase of AUC(0-t) compared with control group ([5]; ketoconazole group): 1.04 fold | increase of Cmax compared with control group ([5]; ketoconazole group): 0.53 fold

OC(Cn1cncn1)(Cn1cncn1)c1ccc(F)cc1F [fluconazole, Fluconazole]
IC50 ([6]; 0.3 mg/ml RLMs, 1 mM NADPH, 37°C, 30 min, n = 3): 11.6 µM | Ki [6, 10]: 15.1 µM | αKi [6, 10]: 19.01 µM
